These results are taken from article PMC5610524, “Tools for the Individualized Therapy of Teicoplanin for Neonates and Children” (Antimicrobial Agents and Chemotherapy, 2017).

Series [1] can be described thus: Nonparametric population PK model (two-compartment, allometric, renal function) fitted to plasma teicoplanin concentrations in neonates, infants and children. It counts as in vivo, human. The note with it: final model. An excerpt: Pharmacokinetic data from 57 children (39 children aged 1 month to 16 years old and 18 neonates with a postmenstrual age [PMA] between 26 and 44 weeks) were available for model building. Patients were prospectively enrolled from two different hospitals in Liverpool (Alder Hey NHS Children's Foundation Trust and Liverpool Women's Hospital) over a 21-month period (April 2013 and January 2015). These PK data have been reported previously in two separate population models ([1], [2]). […] Such an approach avoids the problem of having multiple pharmacokinetic models for the same drug, each with an arbitrarily chosen cutoff value for age or size.
Neonates with a PMA of ≤44 weeks received a loading dose of 16 mg/kg, followed by 8 mg/kg once daily via a 30-min intravenous (i.v.) infusion. Children >1 month old received three loading dosages of 10 mg/kg every 12 h, followed by 10 mg/kg once daily via an i.v. bolus infusion (2 to 5 min), according to the dosages currently recommended by the SPC ([11]). Plasma samples were collected during the first dosage interval and then at steady state (1, 3, 6, and 24 h postdose) on days 3 to 7 of therapy. Neonates weighing <1,000 g contributed two samples per dosing interval because of constraints on sample volume. The duration of the treatment course was at the discretion of the treating physician. All patients received teicoplanin for proven or suspected methicillin-resistant staphylococcal sepsis (due to either coagulase-negative staphylococci [CoNS] or MRSA) and/or central-line-associated bloodstream infection. Demographic variables included weight, height, age in years, PMA in weeks, postnatal age (PNA) in days, serum albumin concentration (in grams per liter), and serum creatinine concentration. The estimated glomerular filtration rate (eGFR) (Schwartz-Haycock) ([28]) was also available for each patient.
Teicoplanin concentrations were measured using a commercially available fluorescence polarization immunoassay (FPIA; Thermo Fisher Scientific, Germany). The limit of quantification (LOQ) was <3.0 mg/liter. The dynamic range was 3 to 100 mg/liter, and overall precision (intra- and interday variability) was <6%.
A PK model was fitted to the data using Pmetrics, version 1.4.2 for R, statistical package 3.2.2, which utilizes the nonparametric adaptive grid (NPAG) algorithm ([29]). The inverse of the estimated assay variance was used to weight the data. Initially, a standard two-compartment model with time-delimited zero-order i.v. input and first-order elimination from the central compartment was developed. The standard model is described by differential equations 1a and 1b below: (1a) dX(1)/dt=R(1)−(Kcp+Cl/V)⋅X(1)+[Kpc⋅X(2)] (1b) dX(2)/dt=Kcp⋅X(1)−Kpc⋅X(2) where X(1) and X(2) represent the amounts of teicoplanin (in milligrams) in the central (c) and peripheral (p) compartments, respectively; R(1) is the rate of infusion of the drug into the central compartment (in milligrams per hour); clearance (Cl) from the central compartment is measured in liters per hour; volume (V) is measured in liters; and the central and peripheral compartments are connected by the first-order rate constants Kcp and Kpc (measured per hour).
In neonates and children, clearance generally scales with size in a nonlinear manner that is best described using a power function. A scaling exponent of 0.75 is most frequently used (i.e., clearance is proportional to weight^0.75). In addition, physiological maturation may also affect clearance, and this is especially important for neonates and young infants ([30], [31]). In the model-building process, we switched from using clearance to using Ke (measured per hour) as the first-order elimination rate constant, where Ke is calculated as Cl/V and is proportional to weight^−0.25. While it is possible to estimate the scaling exponents directly, we chose to fix these values as previously described by others ([24], [30], [31]). […]

Series [2] in a line: BestDose multiple-model Bayesian adaptive dose optimization software, individual simulations for an infant and an older child. On the set-up: species or system human. Conditions: trapezoidal approximation to hourly software predictions. An excerpt: We incorporated the final population PK model into a teicoplanin multiple-model Bayesian adaptive dosing controller (the software “cartridge”). The controller is based on the concepts and software (BestDose) developed by the University of Southern California Laboratory for Applied Pharmacokinetics and Bioinformatics (LAPKB) (http://www.lapk.org) ([35], [36]). The teicoplanin cartridge included the final structural model equations relating input (dosing information) to output (concentrations of the drug in plasma) and the discrete joint probability distribution of the values of the equation variables (PK parameters) in the population, consisting of a discrete number of support points and their associated probabilities (the Bayesian prior). […]
The dose optimization software was tested by comparing the estimated predicted PK profile plot against the observations, as well as by the linear regression of the observed-versus-predicted concentrations for each individual patient. From the predicted concentrations based on the median individual Bayesian posterior parameter distribution, we calculated the bias, which is equal to the mean weighted predicted error (∑ wpe/N), where wpe is (predicted concentration − actual concentration)/(SD for each prediction/observation), N is the number of observations, and the percentage of bias. […]

For teicoplanin, in series [1] (n = 57, occasion 1 (<96 h), Volume = V0 · (wt/70), population mean), the “V01, weight-standardized volume of the central compartment (V0), mean” value came out at 22.636 L. The “V01, weight-standardized volume of the central compartment (V0), median” value in series [1] (n = 57, occasion 1 (<96 h), Volume = V0 · (wt/70), population median) was found to be 19.52 L. For the same substance, the “Ke01, weight-standardized elimination rate constant (Ke0), median” value in series [1] (n = 57, occasion 1 (<96 h), standardized to 70 kg, Ke = Ke0 · (wt/70)^−0.25 · Renal, population median) is 0.03 h⁻¹. Besides, the “Ke02, weight-standardized elimination rate constant (Ke0), mean” value in series [1] (n = 57, occasion 2 (samples ≥96 h), standardized to 70 kg, population mean) worked out at 0.036 h⁻¹. In series [1] (n = 57, occasion 2 (≥96 h), Volume = V0 · (wt/70), population mean), the “V02, weight-standardized volume of the central compartment (V0), mean” value is 22.472 L. The “V02, weight-standardized volume of the central compartment (V0), median” value in series [1] (n = 57, occasion 2 (≥96 h), Volume = V0 · (wt/70), population median) was 22.7 L. Besides, the “Ke02, weight-standardized elimination rate constant (Ke0), median” value in series [1] (n = 57, occasion 2 (≥96 h), standardized to 70 kg, population median) is 0.025 h⁻¹. For the same substance, in series [1] (n = 57, patients >3 months old, population mean), the “pw, power function (Renal = eGFR^pw), mean” value is recorded as 0.125. In series [1] (n = 57, patients >3 months old, population median), the “pw, power function (Renal = eGFR^pw), median” value is 0.07. In series [1] (n = 57, population mean), the “Kcp, first-order intercompartmental rate constant, mean” value was determined as 0.490 h⁻¹ and the “Kpc, first-order intercompartmental rate constant, mean” value is 0.214 h⁻¹. In series [1] (n = 57, population median), the “Kcp, first-order intercompartmental rate constant, median” value turned out to be 0.23 h⁻¹ and the “Kpc, first-order intercompartmental rate constant, median” value amounted to 0.12 h⁻¹. Besides, in series [1] (n = 57 neonates and children, i.v., occasion 1 (samples <96 h after treatment initiation), standardized to 70 kg, Ke = Ke0 · (wt/70)^−0.25 · Renal, population mean), the “Ke01, weight-standardized elimination rate constant (Ke0), mean” value is 0.038 h⁻¹. Besides, the “Median (range) 24-h AUC along the treatment course” value in series [2] (Patient 1 (infant, 5 months, 6.3 kg, eGFR 63.84 ml/min/1.73 m^2)) was 493.8 (355.8–574) mg · h/liter. For the same substance, the “Median (range) 24-h AUC along the treatment course” value in series [2] (Patient 2 (child, 16.3 kg, eGFR 108.41 ml/min/1.73 m^2)) is 368.1 (318.9–388.4) mg · h/liter.
